Test results reported in US20240293507A1, “Methods for Enhancing Immune Checkpoint Inhibitor Therapy” (The University of Southern California, priority 2021, published 2024).
No end group written: not given here.

Columns and labels:
[1] = test system: myeloid-derived suppressor cells (MDSCs) in MC38 colon adenocarcinoma tumors; experiment: MDSC infiltration into tumor microenvironment, MC38 tumors, FACS; format: in vivo, C57BL/6 mice; details: 4 doses cyclic peptide 0.1 mg/kg alone; tumors harvested day 13
Experimental: C57BL/6 mice were implanted subcutaneously with 5×10^6 MC38 colon adenocarcinoma cells, and subsequently treated with 4 doses of the indicated cyclic peptide (0.1 mg/kg), 4 doses of the indicated a cyclic peptide with 3 doses of an anti-PD-1 monoclonal antibody (1 mg/kg), or saline (control). Tumors were harvested at day 13 and the percent of myeloid-derived suppressor cells (MDSCs) was quantified by FACS.

[2] = test system: MC38 mouse colon adenocarcinoma cells; experiment: MC38 colon adenocarcinoma challenge, survival and rechallenge (FIG. 6-8); format: in vivo, mice; details: peptide in combination with anti-PD-1 monoclonal antibody
Text: Enhancement was also found of the efficacy of anti-PD-1 therapy in a mouse colon cancer model by coadministration of a cyclic peptide as described herein. A typical protocol for identifying or characterizing effective analogs of naturally occurring cyclic peptides or effective naturally occurring cyclic peptides is shown in FIG. 6.
Mice were challenged with MC38 mouse colon adenocarcinoma cells and treated with peptide 1 (SEQ ID NO. 1), peptide 2 (SEQ ID NO. 2), or peptide 3 (SEQ ID NO. 3) alone, peptide 1 (SEQ ID NO. 1), peptide 2 (SEQ ID NO. 2), or peptide 3 (SEQ ID NO. 3) in combination with an anti-PD-1 monoclonal antibody, or with the anti-PD-1 monoclonal antibody alone.
Such combination therapy provided an effect that exceeds the summation of effects provided by anti-PD1 or the cyclic peptide as monotherapies. […] Use of cyclic peptides in combination anti-PD-1 ICI also effectively immunized mice to rechallenge with MC38 colon cancer cells. As shown in the upper panel of FIG. 8, MC38 cells formed tumors in naïve control mice.

## peptide 3: cyclic peptide, θ-defensin analog, sequence CICRRRFCLCRRGA (not fully specified (bridges); also: cyclic, kind not given here)
[1]
  percentage of MDSCs within the tumor microenvironment: significant activity in reducing the percentage of MDSCs
[2]
  survival: potentiated the effect of the anti-PD-1 monoclonal antibody
